Holding throughout (assay type): in vivo
The test system of experiment [1] is Setaria faberi (SETFA). Briefly: Test Example 1 pre-emergence herbicidal activity. The note with it: Setaria faberi, 480 h, rate 250 g/ha, evaluated 20 days later, read-out: Pre-emergence activity SETFA (100=total damage to plant; 0=no damage to plant). As to the method:
(§1) Monocotyledonous and dicotyledonous test plants were sown in standard soil in pots. After cultivation for one day (pre-emergence) or after 10 days cultivation (post-emergence) under controlled conditions in a glasshouse, the plants were sprayed with an aqueous spray solution derived from the formulation of the technical active ingredient in 0.6 ml acetone and 45 ml formulation solution containing 10.6% Emulsogen EL (Registry number 61791-12-6), 42.2% N-methylpyrrolidone, 42.2% dipropylene glycol monomethyl ether (Registry number 34590-94-8) and 0.2% X-77 (Registry number 11097-66-8). The test plants were then grown in a greenhouse under optimum conditions until, 15 days later for post-emergence and 20 days for pre-emergence, the test was evaluated (100=total damage to plant; 0=no damage to plant).
(§2) Alopecurus myosuroides (ALOMY), Avena fatua (AVEFA), Lolium perenne (LOLPE), Setaria faberi (SETFA), Digitaria sanguinalis (DIGSA), Echinochloa crus-galli (ECHCG)

For experiment [2], the system named is Echinochloa crus-galli (ECHCG). Briefly: Test Example 1 pre-emergence herbicidal activity. The note with it: Echinochloa crus-galli, 480 h, rate 250 g/ha, evaluated 20 days later, read-out: Pre-emergence activity ECHCG (100=total damage to plant; 0=no damage to plant). As to the method: as §1, §2
Experiment [3] has as its system Digitaria sanguinalis (DIGSA). Briefly: Test Example 1 pre-emergence herbicidal activity. The note with it: Digitaria sanguinalis, 480 h, rate 250 g/ha, evaluated 20 days later, read-out: Pre-emergence activity DIGSA (100=total damage to plant; 0=no damage to plant). As to the method:
as §1, §2

Experiment [4] relates to Alopecurus myosuroides (ALOMY). The experiment is described as follows: Test Example 1 pre-emergence herbicidal activity. The note with it: Alopecurus myosuroides, 480 h, rate 250 g/ha, evaluated 20 days later, read-out: Pre-emergence activity ALOMY (100=total damage to plant; 0=no damage to plant). As to the method: as §1, §2
In experiment [5] the test system is Lolium perenne (LOLPE). The experiment is described as follows: Test Example 1 pre-emergence herbicidal activity. The note with it: Lolium perenne, 480 h, rate 250 g/ha, evaluated 20 days later, read-out: Pre-emergence activity LOLPE (100=total damage to plant; 0=no damage to plant). The protocol: as §1, §2
In experiment [6] the test system is Avena fatua (AVEFA). Briefly: Test Example 1 pre-emergence herbicidal activity. The note with it: Avena fatua, 480 h, rate 250 g/ha, evaluated 20 days later, read-out: Pre-emergence activity AVEFA (100=total damage to plant; 0=no damage to plant). As to the method:
as §1, §2

Experiment [7] deals with Setaria faberi (SETFA). The experiment is described as follows: Test Example 1 post-emergence herbicidal activity. The note with it: 360 h, rate 125 g/ha, evaluated 15 days later, read-out: Post-emergence activity SETFA (100=total damage to plant; 0=no damage to plant). As to the method:
as §1, §2

Experiment [8] concerns Echinochloa crus-galli (ECHCG). The experiment is described as follows: Test Example 1 post-emergence herbicidal activity. The note with it: 360 h, rate 125 g/ha, evaluated 15 days later, read-out: Post-emergence activity ECHCG (100=total damage to plant; 0=no damage to plant). As to the method:
as §1, §2

The test system of experiment [9] is Digitaria sanguinalis (DIGSA). The experiment is described as follows: Test Example 1 post-emergence herbicidal activity. The note with it: 360 h, rate 125 g/ha, evaluated 15 days later, read-out: Post-emergence activity DIGSA (100=total damage to plant; 0=no damage to plant). As to the method:
as §1, §2

Experiment [10] deals with Alopecurus myosuroides (ALOMY). Briefly: Test Example 1 post-emergence herbicidal activity. The note with it: 360 h, rate 125 g/ha, evaluated 15 days later, read-out: Post-emergence activity ALOMY (100=total damage to plant; 0=no damage to plant). The protocol: as §1, §2
In experiment [11] the test system is Lolium perenne (LOLPE). The experiment is described as follows: Test Example 1 post-emergence herbicidal activity. The note with it: 360 h, rate 125 g/ha, evaluated 15 days later, read-out: Post-emergence activity LOLPE (100=total damage to plant; 0=no damage to plant). As to the method: as §1, §2
Experiment [12] has as its system Avena fatua (AVEFA). Briefly: Test Example 1 post-emergence herbicidal activity. The note with it: 360 h, rate 125 g/ha, evaluated 15 days later, read-out: Post-emergence activity AVEFA (100=total damage to plant; 0=no damage to plant). As to the method: as §1, §2

The values that follow come from US8754242B2, “Herbicides” (Syngenta Crop Protection LLC, priority 2007, dated 2014).

For `CCC(=O)OC1=C(c2c(CC)cc(C)cc2CC)C(=O)[C@@H]2[C@H]1[C@H]1CC[C@@H]2O1` (racemic) [Example P22], the pest or weed control at 250 g/ha in experiment [1], in [2], in experiment [3], in experiment [4], in [5] and in experiment [6] was 100% throughout. Moreover, the pest or weed control at 125 g/ha in experiment [7], in experiment [8], in [9], in experiment [10], in experiment [11] and in [12] was 100% in each case.

Take `CCc1cc(C)cc(CC)c1C1=C(OC(=O)C2CC2)[C@H]2[C@@H](C1=O)[C@@H]1CC[C@H]2O1` (racemic) [Example P21]: the pest or weed control at 250 g/ha in experiment [1], in experiment [2], in [3], in experiment [4], in experiment [5] and in experiment [6] was 100% throughout. Moreover, the pest or weed control at 125 g/ha in experiment [7] came to 100%; in [8], 100%; in [9] it was 80%; in experiment [10] it was 90%; in experiment [11], 100%; in experiment [12] it was 100%.

Take `Cc1cc(C)c(C2=C(O)[C@H]3[C@@H](C2=O)[C@@H]2C=C[C@@]3(CO)O2)c(C)c1` (racemic) [Example T37]: the pest or weed control at 250 g/ha turned out to be 0% in [1]; 30% in experiment [2]; 20% in [3]; 60% in experiment [4]; 30% in experiment [5]; 30% in [6]. The pest or weed control at 125 g/ha in experiment [7] amounted to 70%; in [8] it was 80%; in experiment [9], 50%; in experiment [10] it was 50%; in experiment [11], 20%; in [12], 20%.

For `Cc1cc(C)c(C2=C(O)[C@@H]3[C@@H]4O[C@@H](C[C@H]4C)[C@@H]3C2=O)c(C)c1` [Example T65], the pest or weed control at 250 g/ha stood at 90% in [1]; 100% in experiment [2]; 100% in [3]; 100% in experiment [4]; 100% in [5]; 90% in experiment [6]. In addition, the pest or weed control at 125 g/ha in [7] stood at 100%; in [8], 100%; in experiment [9], 100%; in [10], 90%; in experiment [11], 80%; in experiment [12], 90%.

`Cc1ccc([C@@H]2C[C@@H]3O[C@H]2[C@H]2C(O)=C(c4c(C)cc(C)cc4C)C(=O)[C@H]23)cc1` (racemic) [Example T71]: the pest or weed control at 250 g/ha in experiment [1] worked out at 20%; in experiment [2], 50%; in [3], 50%; in [4], 30%; in experiment [5], 0%; in experiment [6] it was 0%. The pest or weed control at 125 g/ha in [7] was found to be 50%; in [8], 60%; in [9] it was 70%; in experiment [10], 50%; in experiment [11], 20%; in experiment [12], 10%.

Regarding `Cc1cc(C)c(C2=C(O)[C@H]3[C@@H](C2=O)[C@@H]2C=C(CO)[C@@]3(C)O2)c(C)c1` [Example T58], the pest or weed control at 250 g/ha in experiment [1] was 0%; in experiment [2] it was 60%; in experiment [3], 0%; in [4], 0%; in [5], 0%; in experiment [6], 10%. For the same molecule, the pest or weed control at 125 g/ha in experiment [7] was determined as 30%; in experiment [8] it was 30%; in experiment [9] it was 40%; in [10] it was 0%; in [11] it was 0%; in experiment [12], 10%.

With `CCc1cc(C)cc(CC)c1C1=C(O)[C@@H]2[C@@H]3O[C@@H](C[C@H]3c3cccc(C#N)c3)[C@@H]2C1=O` [Example T182], the pest or weed control at 250 g/ha in experiment [1] is 50%; in experiment [2], 90%; in experiment [3] it was 80%; in experiment [4], 30%; in experiment [5] it was 40%; in [6], 50%. Also, the pest or weed control at 125 g/ha in experiment [7] was found to be 100%; in experiment [8], 100%; in [9], 100%; in experiment [10], 100%; in [11], 80%; in experiment [12], 90%.

With `Cc1cc(C)c(C2=C(O)[C@H]3[C@@H](C2=O)[C@@H]2CC[C@@]3(CO)O2)c(C)c1` [Example T49], the pest or weed control at 250 g/ha in experiment [1] was 20%; in experiment [2], 80%; in [3], 10%; in [4], 80%; in experiment [5], 100%; in experiment [6], 70%. Also, the pest or weed control at 125 g/ha in experiment [7] came out at 50%; in experiment [8], 80%; in experiment [9], 70%; in [10], 80%; in experiment [11] it was 70%; in experiment [12], 80%.

`CCc1cc(C)cc(CC)c1C1=C(O)[C@@H]2[C@@H]3O[C@@H](C[C@H]3c3ccc([N+](=O)[O-])cc3)[C@@H]2C1=O` [Example T158]: the pest or weed control at 250 g/ha in experiment [1] came out at 70%; in experiment [2] it was 50%; in experiment [3], 70%; in experiment [4], 60%; in [5] it was 70%; in experiment [6] it was 50%. Further, the pest or weed control at 125 g/ha in [7] is 100%; in experiment [8] it was 100%; in experiment [9], 100%; in experiment [10] it was 90%; in experiment [11], 80%; in experiment [12], 90%.

As to `C=CCC(=O)OC1=C(c2c(CC)cc(C)cc2CC)C(=O)[C@@H]2[C@H]1[C@H]1CC[C@@H]2O1` [Example P23], the pest or weed control at 250 g/ha in experiment [1] stood at 100%; in [2] it was 100%; in experiment [3], 100%; in experiment [4], 80%; in [5] it was 100%; in experiment [6], 90%. Further, the pest or weed control at 125 g/ha in [7] turned out to be 80%; in experiment [8], 100%; in experiment [9], 70%; in [10] it was 100%; in experiment [11] it was 90%; in experiment [12] it was 90%.
